Patent US7488791B2, “Mixture of peptides derived from E6 and/or E7 papillomavirus proteins and uses thereof” (priority 2001, dated 2009)

How the values were obtained:
CD4+ T lymphocytes = assay: Proliferation assay ([3H]-thymidine incorporation) of PBMCs / cells from patients having bowenoid papulosis; format: cell-based, human; conditions: patient, DR 1501, DRB5
Description: A suspension of cells (PBMCs, CD8+ cell-depleted PBMCs, T lymphocytes pre-enriched by a step of culturing in vitro with the peptides selected according to the invention, or cloned T lymphocytes) is cultured for 3 to 5 days in the presence of the selected peptides and, as needed, of suitable presenting cells, such as dendritic cells, autologous or heterologous PBMCs, lymphoblastoid cells such as those obtained after infection with the EBV virus or genetically modified cells. The cell proliferation is measured by incorporation of tritiated thymidine into the DNA of the cells. The peptides selected in accordance with the invention make it possible to reveal, in the initial suspension, the presence of cells specific for these peptides. • as regards the ELISPOT assay:
To verify the stimulation of CD4+ T cell proliferation using immunogenic composition according to the invention, a proliferation assay is performed in vitro.
The cells (PBMCs) extracted from peripheral blood were cultured in 96-well microplates in a proportion of 2×10^5 cells per well, in a final volume of 200 μl of complete medium. The cells were or were not stimulated with 10 μg/ml of a mixture of peptides according to the invention. […] The cells were recovered and the [^3H]-thymidine incorporation was measured in a cellular DNA. […]

DR7-restricted clone = conditions: Strang et al.; cited from earlier work
cells from patients = conditions: cited from earlier work; for Proliferation of cells from patients infected with HPV, responders/tested: De Gruijl et al.
[1] = test system: E7-specific T lymphocyte lines; conditions: Altmann et al.; cited from earlier work
cells in the blood = conditions: Tsukui et al., 140 HPV16+ patients; cited from earlier work

CC[C@H](C)[C@H](N)C(=O)N[C@@H](CCCNC(=N)N)C(=O)NCC(=O)N[C@@H](CCCNC(=N)N)C(=O)N[C@@H](Cc1c[nH]c2ccccc12)C(=O)N[C@H](C(=O)NCC(=O)N[C@@H](CCCNC(=N)N)C(=O)N[C@@H](CS)C(=O)N[C@@H](CCSC)C(=O)N[C@@H](CO)C(=O)N[C@@H](CS)C(=O)N[C@@H](CS)C(=O)N[C@@H](CCCNC(=N)N)C(=O)N[C@@H](CO)C(=O)N[C@@H](CO)C(=O)N[C@@H](CCCNC(=N)N)C(=O)N[C@H](C(=O)N[C@@H](CCCNC(=N)N)C(=O)N[C@@H](CCCNC(=N)N)C(=O)N[C@@H](CCC(=O)O)C(=O)N[C@H](C(=O)N[C@@H](CCC(N)=O)C(=O)N[C@@H](CC(C)C)C(=O)O)[C@@H](C)O)[C@@H](C)O)[C@@H](C)O [E6/10]
Prolif: peptide recognized, in terms of proliferation, by the CD4+ T lymphocytes (CD4+ T lymphocytes): weak

E6: 42-57: HPV16 E6 peptide, positions 42-57, Strang et al. (QQLLRREVYDFAFRDL; UniProt P03126 42-57, looked up, fragment)
Recognition by T cell clone (DR7-restricted clone): Recognized by DR7-restricted

E7: 1-32: HPV16 E7 peptide, positions 1-32, De Gruijl et al.
Proliferation of cells from patients infected with HPV, responders/tested (cells from patients): 8/28

E7: 5-18: HPV16 E7 peptide, positions 5-18, Altmann et al. (TPTLHEYMLDLQPE; UniProt P03129 5-18, looked up, fragment)
Recognition by T lymphocyte line or clone from a patient [1]: Recognized by line from a DR1

E7: 17-34: HPV16 E7 peptide, positions 17-34, Altmann et al. (PETTDLYCYEQLNDSSEE; UniProt P03129 17-34, looked up, fragment)
Recognition by T lymphocyte line or clone from a patient [1]: Recognized by line from a DR4

E7: 19-56: HPV16 E7 peptide, positions 19-56, De Gruijl et al. (TTDLYCYEQLNDSSEEEDEIDGPAGQAEPDRAHYNIVT; UniProt P03129 19-56, looked up, fragment)
Proliferation of cells from patients infected with HPV, responders/tested (cells from patients): 10/28

E7: 27-60: HPV16 E7 peptide, positions 27-60, Tsukui et al. (QLNDSSEEEDEIDGPAGQAEPDRAHYNIVTFCCK; UniProt P03129 27-60, looked up, fragment)
Secretion of IL2 (activation of cells) by patients, responders/tested (cells in the blood): 4/140

E7: 43-80: HPV16 E7 peptide, positions 43-80, De Gruijl et al. (GQAEPDRAHYNIVTFCCKCDSTLRLCVQSTHVDIRTLE; UniProt P03129 43-80, looked up, fragment)
Proliferation of cells from patients infected with HPV, responders/tested (cells from patients): 10/28

E7: 51-98: HPV16 E7 peptide, positions 51-98, Tsukui et al. (HYNIVTFCCKCDSTLRLCVQSTHVDIRTLEDLLMGTLGIVCPICSQKP; UniProt P03129 51-98, looked up, fragment)
Secretion of IL2 (activation of cells) by patients, responders/tested (cells in the blood): 7/140

E7: 67-98: HPV16 E7 peptide, positions 67-98, De Gruijl et al. (LCVQSTHVDIRTLEDLLMGTLGIVCPICSQKP; UniProt P03129 67-98, looked up, fragment)
Proliferation of cells from patients infected with HPV, responders/tested (cells from patients): 17/28
Stimulation of the cells of patients, in words (cells from patients; de Gruijl et al.): stimulates the cells of a majority of patients

E7: 69-82: HPV16 E7 peptide, positions 69-82, Altmann et al. (VQSTHVDIRTLEDL; UniProt P03129 69-82, looked up, fragment)
Recognition by T lymphocyte line or clone from a patient [1]: Recognized by clone from a DR4
